Results published in patent publication US12415816B2, “Benzothiazole derivatives and 7-aza-benzothiazole derivatives as janus kinase 2 inhibitors and uses thereof” (Dana-Farber Cancer Institute, Inc., priority 2018, dated 2025).

test system: JAK2/STAT5; assay: Western blots of JAK2/STAT5 inhibition in cells; type: cell-based; conditions: cells treated with indicated concentrations for 4 hours; immunoblotting pJAK2, pSTAT5, c-Myc
Procedure: (§1) FIG. 1. […] Cells were treated with the indicated concentrations of JAK2 inhibitor for 4 hours. Cell pellets were lysed with Cell Lysis Buffer (Cell Signaling Technology) and then immunoblotting was performed with pJAK2 (#3771), pSTAT5 (#4322), c-Myc (#9402), JAK2 (#3230), STAT5 (#9363 or 94205), and β-actin (#4967 or 12620) antibodies from Cell Signaling Technology.
as §1, with “2.” for “1.”

| SMILES | JAK2/STAT5 inhibition (Western blots) |
| --- | --- |
| CCN1CCN(Cc2cc(C(=O)Nc3ccc(C)c(-c4ccc5nc(NC(=O)C6CC6)sc5n4)c3)cc(C(F)(F)F)c2)CC1 [Compound I-8, N-(3-(2-(cyclopropanecarboxamido)thiazolo[5,4-b]pyridin-5-yl)-4-methylphenyl)-3-((4-ethylpiperazin-1-yl)methyl)-5-(trifluoromethyl)benzamide] | JAK2/STAT5 inhibition |
| CCN1CCN(C(=O)c2cc(NC(=O)c3ccc(C)c(-c4ccc5nc(NC(=O)C6CC6)sc5n4)c3)cc(C(F)(F)F)c2)CC1 [Compound I-6, 3-(2-(cyclopropanecarboxamido)thiazolo[5,4-b]pyridin-5-yl)-N-(3-(4-ethylpiperazine-1-carbonyl)-5-(trifluoromethyl)phenyl)-4-methylbenzamide] | JAK2/STAT5 inhibition |

target: JAK2 (Homo sapiens (Human), UniProt O60674); assay: JAK2 Z-Lyte biochemical assay; conditions: commercial JAK2 Z-Lyte assay from Invitrogen
Sequence (O60674 whole entry): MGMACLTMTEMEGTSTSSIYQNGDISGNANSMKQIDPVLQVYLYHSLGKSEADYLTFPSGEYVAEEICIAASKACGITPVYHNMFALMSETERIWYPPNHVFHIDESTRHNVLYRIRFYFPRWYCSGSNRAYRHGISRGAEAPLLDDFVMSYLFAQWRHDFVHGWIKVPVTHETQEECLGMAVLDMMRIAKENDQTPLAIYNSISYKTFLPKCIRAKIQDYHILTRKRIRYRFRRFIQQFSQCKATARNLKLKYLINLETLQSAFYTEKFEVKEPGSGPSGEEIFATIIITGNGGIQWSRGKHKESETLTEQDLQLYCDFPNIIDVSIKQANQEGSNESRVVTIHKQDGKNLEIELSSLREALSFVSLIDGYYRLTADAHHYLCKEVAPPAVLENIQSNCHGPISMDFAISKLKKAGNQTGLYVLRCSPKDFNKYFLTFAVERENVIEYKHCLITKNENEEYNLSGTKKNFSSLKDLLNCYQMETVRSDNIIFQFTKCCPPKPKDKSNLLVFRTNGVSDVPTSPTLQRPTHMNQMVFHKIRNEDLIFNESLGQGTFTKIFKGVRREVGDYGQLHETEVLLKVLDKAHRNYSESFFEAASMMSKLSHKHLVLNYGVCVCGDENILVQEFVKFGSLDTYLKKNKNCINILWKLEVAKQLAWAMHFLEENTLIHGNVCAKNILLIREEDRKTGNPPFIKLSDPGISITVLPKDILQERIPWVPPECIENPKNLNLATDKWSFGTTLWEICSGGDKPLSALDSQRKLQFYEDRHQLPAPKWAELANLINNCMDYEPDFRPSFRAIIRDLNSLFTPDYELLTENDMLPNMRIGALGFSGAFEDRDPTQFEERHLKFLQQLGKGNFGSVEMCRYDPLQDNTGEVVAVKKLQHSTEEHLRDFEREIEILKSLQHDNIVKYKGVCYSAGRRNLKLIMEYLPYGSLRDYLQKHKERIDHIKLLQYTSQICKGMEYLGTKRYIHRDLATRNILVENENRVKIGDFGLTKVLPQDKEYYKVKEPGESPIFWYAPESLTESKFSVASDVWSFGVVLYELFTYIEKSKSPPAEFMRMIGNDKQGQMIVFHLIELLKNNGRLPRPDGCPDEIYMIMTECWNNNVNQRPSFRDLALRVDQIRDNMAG
Procedure: The JAK2 Z-Lyte biochemical assay was performed according to manufacturer's instructions (Life Technologies).

| SMILES | IC50 [µM] |
| --- | --- |
| CCN1CCN(Cc2cc(C(=O)N3Cc4ccc(-c5ccc6nc(NC(=O)C7CC7)sc6n5)cc4C3)cc(C(F)(F)F)c2)CC1 [Compound I-13, N-(5-(2-(3-((4-ethylpiperazin-1-yl)methyl)-5-(trifluoromethyl)benzoyl)isoindolin-5-yl)thiazolo[5,4-b]pyridin-2-yl)cyclopropanecarboxamide] | > 10 |
| CCN1CCN(Cc2ccc(NC(=O)Nc3ccc(C)c(Oc4ccc5nc(NC(=O)C6CC6)sc5n4)c3)cc2C(F)(F)F)CC1 [Compound I-17, N-(5-(5-(3-(4-((4-ethylpiperazin-1-yl)methyl)-3-(trifluoromethyl)phenyl)ureido)-2-methylphenoxy)thiazolo[5,4-b]pyridin-2-yl)cyclopropanecarboxamide] | > 10 |
| CCN1CCN(Cc2cc(C(=O)Nc3cccc(-c4ccc5nc(NC(=O)C6CC6)sc5n4)c3)cc(C(F)(F)F)c2)CC1 [Compound I-7, N-(3-(2-(cyclopropanecarboxamido)thiazolo[5,4-b]pyridin-5-yl)phenyl)-3-((4-ethylpiperazin-1-yl)methyl)-5-(trifluoromethyl)benzamide] | 0.55 |
| CCN1CCN(Cc2ccc(Nc3nc4ccc(Oc5ccc6nc(NC(=O)C7CC7)sc6n5)cc4[nH]3)cc2C(F)(F)F)CC1 [Compound I-25, N-(5-((2-((4-((4-ethylpiperazin-1-yl)methyl)-3-(trifluoromethyl)phenyl)amino)-1H-benzo[d]imidazol-6-yl)oxy)thiazolo[5,4-b]pyridin-2-yl)cyclopropanecarboxamide] | 0.63 |
| O=C(Nc1nc2ccc(Oc3ccc4c(c3)CN(C(=O)Nc3ccc(F)cc3F)C4)nc2s1)C1CC1 [Compound I-23, 5-((2-(cyclopropanecarboxamido)thiazolo[5,4-b]pyridin-5-yl)oxy)-N-(2,4-difluorophenyl)isoindoline-2-carboxamide] | > 10 |
| CCN1CCN(Cc2ccc(NC(=O)N3Cc4ccc(Oc5ccc6nc(NC(=O)C7CC7)sc6n5)cc4C3)cc2C(F)(F)F)CC1 [Compound I-21, 5-((2-(cyclopropanecarboxamido)thiazolo[5,4-b]pyridin-5-yl)oxy)-N-(4-((4-ethylpiperazin-1-yl)methyl)-3-(trifluoromethyl)phenyl)isoindoline-2-carboxamide] | > 10 |
| CCN1CCN(Cc2cc(C(=O)Nc3ccc(C)c(-c4ccc5nc(NC(=O)C6CC6)sc5n4)c3)cc(C(F)(F)F)c2)CC1 [Compound I-8, N-(3-(2-(cyclopropanecarboxamido)thiazolo[5,4-b]pyridin-5-yl)-4-methylphenyl)-3-((4-ethylpiperazin-1-yl)methyl)-5-(trifluoromethyl)benzamide] | 0.639 |
| O=C(Nc1nc2ccc(-c3ccc4c(c3)N(C(=O)Nc3ccc(F)cc3F)CC4)nc2s1)C1CC1 [Compound I-10, 6-(2-(cyclopropanecarboxamido)thiazolo[5,4-b]pyridin-5-yl)-N-(2,4-difluorophenyl)indoline-1-carboxamide] | > 10 |
| CC(=O)Nc1nc2ccc(-c3cc(C(=O)Nc4ccc(F)cc4F)ccc3C)nc2s1 [Compound I-2, 3-(2-acetamidothiazolo[5,4-b]pyridin-5-yl)-N-(2,4-difluorophenyl)-4-methylbenzamide] | > 10 |
| CCN1CCN(Cc2cc(C(=O)Nc3ccc(C)c(Oc4ccc5nc(NC(=O)C6CC6)sc5n4)c3)cc(C(F)(F)F)c2)CC1 [Compound I-19, N-(3-((2-(cyclopropanecarboxamido)thiazolo[5,4-b]pyridin-5-yl)oxy)-4-methylphenyl)-3-((4-ethylpiperazin-1-yl)methyl)-5-(trifluoromethyl)benzamide] | 0.824 |
| O=C(Nc1nc2ccc(-c3ccc4c(c3)CN(C(=O)Nc3ccc(F)cc3F)C4)nc2s1)C1CC1 [Compound I-15, 5-(2-(cyclopropanecarboxamido)thiazolo[5,4-b]pyridin-5-yl)-N-(2,4-difluorophenyl)isoindoline-2-carboxamide] | > 10 |
| Cc1ccc(NC(=O)Nc2ccc(F)cc2F)cc1Oc1ccc2nc(NC(=O)C3CC3)sc2n1 [Compound I-16, N-(5-(5-(3-(2,4-difluorophenyl)ureido)-2-methylphenoxy)thiazolo[5,4-b]pyridin-2-yl)cyclopropanecarboxamide] | > 10 |
| CCN1CCN(Cc2cc(NC(=O)N3Cc4ccc(-c5ccc6nc(NC(=O)C7CC7)sc6n5)cc4C3)cc(C(F)(F)F)c2)CC1 [Compound I-14, 5-(2-(cyclopropanecarboxamido)thiazolo[5,4-b]pyridin-5-yl)-N-(3-((4-ethylpiperazin-1-yl)methyl)-5-(trifluoromethyl)phenyl)isoindoline-2-carboxamide] | > 10 |
| CCN1CCN(Cc2cc(NC(=O)Nc3ccc(C)c(-c4ccc5nc(NC(=O)C6CC6)sc5n4)c3)cc(C(F)(F)F)c2)CC1 [Compound I-9, N-(5-(5-(3-(3-((4-ethylpiperazin-1-yl)methyl)-5-(trifluoromethyl)phenyl)ureido)-2-methylphenyl)thiazolo[5,4-b]pyridin-2-yl)cyclopropanecarboxamide] | > 10 |
| CCN1CCN(Cc2cc(NC(=O)N3CCc4ccc(-c5ccc6nc(NC(=O)C7CC7)sc6n5)cc43)cc(C(F)(F)F)c2)CC1 [Compound I-12, 6-(2-(cyclopropanecarboxamido)thiazolo[5,4-b]pyridin-5-yl)-N-(3-((4-ethylpiperazin-1-yl)methyl)-5-(trifluoromethyl)phenyl)indoline-1-carboxamide] | > 10 |
| CCN1CCN(Cc2cc(NC(=O)N3Cc4ccc(Oc5ccc6nc(NC(=O)C7CC7)sc6n5)cc4C3)cc(C(F)(F)F)c2)CC1 [Compound I-22, 5-((2-(cyclopropanecarboxamido)thiazolo[5,4-b]pyridin-5-yl)oxy)-N-(3-((4-ethylpiperazin-1-yl)methyl)-5-(trifluoromethyl)phenyl)isoindoline-2-carboxamide] | > 10 |
| Cc1ccc(NC(=O)Nc2ccc(F)cc2F)cc1-c1ccc2nc(NC(=O)C3CC3)sc2n1 [Compound I-3, N-(5-(5-(3-(2,4-difluorophenyl)ureido)-2-methylphenyl)thiazolo[5,4-b]pyridin-2-yl)cyclopropanecarboxamide] | > 10 |
| Cc1ccc(C(=O)Nc2ccc(F)cc2F)cc1-c1ccc2nc(NC(=O)C3CC3)sc2n1 [Compound I-1, 3-(2-(cyclopropanecarboxamido)thiazolo[5,4-b]pyridin-5-yl)-N-(2,4-difluorophenyl)-4-methylbenzamide] | > 10 |
| CCN1CCN(C(=O)c2cc(NC(=O)c3ccc(C)c(-c4ccc5nc(NC(=O)C6CC6)sc5n4)c3)cc(C(F)(F)F)c2)CC1 [Compound I-6, 3-(2-(cyclopropanecarboxamido)thiazolo[5,4-b]pyridin-5-yl)-N-(3-(4-ethylpiperazine-1-carbonyl)-5-(trifluoromethyl)phenyl)-4-methylbenzamide] | 1.45 |
| CCN1CCN(Cc2cc(NC(=O)c3ccc(C)c(Oc4ccc5nc(NC(=O)C6CC6)sc5n4)c3)cc(C(F)(F)F)c2)CC1 [Compound I-20, 3-((2-(cyclopropanecarboxamido)thiazolo[5,4-b]pyridin-5-yl)oxy)-N-(3-((4-ethylpiperazin-1-yl)methyl)-5-(trifluoromethyl)phenyl)-4-methylbenzamide] | 2.83 |
| CCN1CCN(Cc2cc(C(=O)N3CCc4ccc(-c5ccc6nc(NC(=O)C7CC7)sc6n5)cc43)cc(C(F)(F)F)c2)CC1 [Compound I-11, N-(5-(1-(3-((4-ethylpiperazin-1-yl)methyl)-5-(trifluoromethyl)benzoyl)indolin-6-yl)thiazolo[5,4-b]pyridin-2-yl)cyclopropanecarboxamide] | > 10 |
| O=C(Nc1nc2ccc(Oc3ccc4nc(Nc5ccc(F)cc5F)[nH]c4c3)nc2s1)C1CC1 [Compound I-24, N-(5-((2-((2,4-difluorophenyl)amino)-1H-benzo[d]imidazol-6-yl)oxy)thiazolo[5,4-b]pyridin-2-yl)cyclopropanecarboxamide] | > 10 |
| CCN1CCN(Cc2cc(C(=O)Nc3ccc(C)c(-c4ccc5nc(NC(=O)C6CC6)sc5c4)c3)cc(C(F)(F)F)c2)CC1 [Compound I-4] | 0.881 |

test system: cell lines or patient-derived xenografts from patients with CRLF2-rearranged B-ALL; assay: not given; conditions: cited from earlier work

| SMILES | IC50 [µM] |
| --- | --- |
| N#CC[C@H](C1CCCC1)n1cc(-c2ncnc3[nH]ccc23)cn1 [Ruxolitinib] | > 20 |
